{"source": "BindingDB's records for doi:10.1016/j.bmcl.2005.06.067", "about": "(Carlsson Research, 2005)", "key": {"[1]": {"test": "Inhibitory activity against 5-hydroxytryptamine 1D receptor in calf"}, "[2]": {"test": "Inhibitory activity against 5-hydroxytryptamine 1D receptor in calf", "remark": "listed apart in the source"}}}
{"smiles": "CCc1[nH]c2ccc(OC)cc2c1CCN(C)C", "note": "[2-ethyl-5-methoxy-N,N-dimethyltryptamine]", "values": [{"measurement": "IC50", "setting": "[1]", "value": 1400, "unit": "nM"}]}
{"smiles": "COc1ccc2[nH]c(C)c(C3=CCNCC3)c2c1", "note": "[5-Methoxy-2-methyl-3-(1,2,3,6-tetrahydro-pyridin-4-yl)-1H-indole]", "values": [{"measurement": "IC50", "setting": "[2]", "value": "> 1000", "unit": "nM"}]}
